Drawing on US20240116985A1, “STAPLED PEPTIDES AND METHODS THEREOF” (priority 2020, published 2024), this text covers IC50 for 14 molecules.

Starred links: 1 amine or outer side, 2 acyl side, 3 side chain; linkers in the order of their positions; H or OH if unused. Positions of bridges follow the written chain, without caps; N, C: chain ends. Non-standard residues stand in square brackets, D forms with d. Residues, ends and D or L forms follow the SMILES beside them. X3 = O=C([C@]1(CC=[*:3])CCCN1[*:1])[*:2]; Bta = N[C@@H](Cc1csc2ccccc12)C(=O)O; tBuAla = CC(C)(C)C[C@H](N)C(=O)O; 3Thi = N[C@@H](Cc1ccsc1)C(=O)O; R5 = C=CCCC[C@@](C)(N)C(=O)O; S5 = C=CCCC[C@](C)(N)C(=O)O; Aib = CC(C)(N)C(=O)O

The test deals with T1, full-length beta-Catenin (Uniprot ID P35222) (Homo sapiens, UniProt P35222).
T1 construct: 10 nM full-length beta-Catenin (Uniprot ID P35222)
T1 sequence (P35222 1-781): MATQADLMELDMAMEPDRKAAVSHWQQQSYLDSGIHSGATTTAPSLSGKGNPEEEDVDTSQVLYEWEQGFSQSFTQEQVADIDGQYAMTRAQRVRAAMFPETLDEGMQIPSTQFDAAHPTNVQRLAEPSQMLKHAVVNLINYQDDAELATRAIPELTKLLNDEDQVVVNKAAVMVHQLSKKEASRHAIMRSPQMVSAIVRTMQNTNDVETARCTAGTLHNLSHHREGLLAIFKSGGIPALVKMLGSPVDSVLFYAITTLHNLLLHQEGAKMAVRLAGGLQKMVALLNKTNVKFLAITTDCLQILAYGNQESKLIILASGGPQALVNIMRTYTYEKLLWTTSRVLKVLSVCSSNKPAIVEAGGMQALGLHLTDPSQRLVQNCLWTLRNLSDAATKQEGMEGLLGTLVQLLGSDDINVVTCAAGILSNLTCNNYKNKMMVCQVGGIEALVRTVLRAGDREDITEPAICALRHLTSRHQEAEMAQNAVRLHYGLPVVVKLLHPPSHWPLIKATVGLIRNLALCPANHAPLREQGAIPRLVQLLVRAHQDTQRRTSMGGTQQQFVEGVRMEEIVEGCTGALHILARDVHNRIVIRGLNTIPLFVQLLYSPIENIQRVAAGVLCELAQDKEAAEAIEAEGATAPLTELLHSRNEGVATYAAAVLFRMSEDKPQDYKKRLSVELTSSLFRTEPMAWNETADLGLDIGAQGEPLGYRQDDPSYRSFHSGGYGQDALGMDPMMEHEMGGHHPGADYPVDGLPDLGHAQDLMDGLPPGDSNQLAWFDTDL
In words: Fluorescence polarization IC50 (beta-catenin / 5FAM-TCF4 10-53 competition). It is filed as binding. The following applies: fluorescence polarization; read-out: beta-Catenin FP IC50.
As for `CC(=O)N1CCC[C@]12CC=CCCC[C@@](C)(C(=O)N[C@@H](CC(=O)O)C(=O)N[C@@H](CC(=O)O)C(=O)NC(C)(C)C(=O)N[C@@H](C)C(=O)N[C@@H](Cc1ccccc1)C(=O)N[C@]1(C)CCCC=CCCC[C@@](C)(C(=O)N[C@@H](C)C(N)=O)NC(=O)[C@H](Cc3csc4ccccc34)NC(=O)[C@H](Cc3ccsc3)NC(=O)[C@H](C)NC1=O)NC(=O)[C@H](CC(C)(C)C)NC(=O)[C@H](CC(=O)O)NC2=O` [I-1781, Ac-PL3-Asp-Npg-S5-Asp-Asp-Aib-Ala-Phe-R5-Ala-3Thi-BztA-S5-Ala-NH2] (Ac-[X3]D[tBuAla][S5]DD[Aib]AF[R5]A[3Thi][Bta][S5]A-NH2; staple 1-4, 10-14 (inferred)), the IC50 was 8450 nM.
The same measure for `CC(=O)N1CCC[C@]12CC=CCCCC1(CCCC=CCCCOC(=O)N3CC[C@@](C(=O)N[C@@H](Cc4ccsc4)C(=O)N[C@@H](Cc4csc5ccccc45)C(=O)N[C@@H](CCC(N)=O)C(N)=O)(C3)NC(=O)[C@H](CC(C)C)NC(=O)[C@H](Cc3ccccc3)NC(=O)[C@H](C)NC(=O)[C@H](C)NC(=O)[C@H](Cc3ccc(O)cc3)NC(=O)[C@H](CC(=O)O)NC1=O)NC(=O)[C@H](CC(C)(C)C)NC(=O)[C@H](CC(=O)O)NC2=O` (stereo partly drawn) [I-1784, Ac-PL3-Asp-Npg-B5-Asp-Tyr-Ala-Ala-Phe-Leu-PyrS2-3Thi-BztA-Gln-NH2]: 528 nM; for `CC(=O)N1CCC[C@]12CC=CCCCC1(CCCC=CCCCOC(=O)N3CC[C@@](C(=O)N[C@@H](Cc4ccsc4)C(=O)N[C@@H](Cc4csc5ccccc45)C(=O)N[C@@H](CCC(N)=O)C(N)=O)(C3)NC(=O)[C@H](CC(N)=O)NC(=O)[C@H](Cc3ccccc3)NC(=O)[C@H](C)NC(=O)[C@H](C)NC(=O)[C@H](CCc3ccc(O)cc3)NC(=O)[C@H](CC(=O)O)NC1=O)NC(=O)[C@H](CC(C)(C)C)NC(=O)[C@H](CC(=O)O)NC2=O` (stereo partly drawn) [I-1785, Ac-PL3-Asp-Npg-B5-Asp-hTyr-Ala-Ala-Phe-Asn-PyrS2-3Thi-BztA-Gln-NH2]: 31 nM.
Then `CC(=O)N1CCC[C@]12CC=CCCCC1(CCCC=CCCCOC(=O)N3CC[C@@](C(=O)N[C@@H](Cc4ccsc4)C(=O)N[C@@H](Cc4csc5ccccc45)C(=O)N[C@@H](CCC(N)=O)C(N)=O)(C3)NC(=O)[C@H](CC(C)C)NC(=O)[C@H](Cc3ccccc3)NC(=O)[C@H](C)NC(=O)[C@H](C)NC(=O)[C@H](CCc3ccc(O)cc3)NC(=O)[C@H](CC(=O)O)NC1=O)NC(=O)[C@H](CC(C)(C)C)NC(=O)[C@H](CC(=O)O)NC2=O` (stereo partly drawn) [I-1787, Ac-PL3-Asp-Npg-B5-Asp-hTyr-Ala-Ala-Phe-Leu-PyrS2-3Thi-BztA-Gln-NH2], with 776 nM; and `CC(=O)N1CCC[C@]12CC=CCCCC1(CCCC=CCCCOC(=O)N3CC[C@@](C(=O)N[C@@H](Cc4ccsc4)C(=O)N[C@@H](Cc4csc5ccccc45)C(=O)N[C@@H](CCC(N)=O)C(N)=O)(C3)NC(=O)[C@H](CCO)NC(=O)[C@H](Cc3ccccc3)NC(=O)[C@H](C)NC(=O)[C@H](C)NC(=O)[C@H](Cc3c[nH]c4ccccc34)NC(=O)[C@H](CC(=O)O)NC1=O)NC(=O)[C@H](CC(C)(C)C)NC(=O)[C@H](CC(=O)O)NC2=O` (stereo partly drawn) [I-1789, Ac-PL3-Asp-Npg-B5-Asp-Trp-Ala-Ala-Phe-Hse-PyrS2-3Thi-BztA-Gln-NH2], with 183 nM; and `CC(=O)N1CCC[C@]12CC=CCCCC1(CCCC=CCCCOC(=O)N3CC[C@@](C(=O)N[C@@H](Cc4ccsc4)C(=O)N[C@@H](Cc4csc5ccccc45)C(=O)N[C@@H](CCC(N)=O)C(N)=O)(C3)NC(=O)[C@H](CC(C)C)NC(=O)[C@H](Cc3ccccc3)NC(=O)[C@H](C)NC(=O)[C@H](C)NC(=O)[C@H](Cc3c(F)c(F)c(F)c(F)c3F)NC(=O)[C@H](CC(=O)O)NC1=O)NC(=O)[C@H](CC(C)(C)C)NC(=O)[C@H](CC(=O)O)NC2=O` (stereo partly drawn) [I-1792, Ac-PL3-Asp-Npg-B5-Asp-Pff-Ala-Ala-Phe-Leu-PyrS2-3Thi-BztA-Gln-NH2], with 935 nM.
Take `CC(=O)N1CCC[C@]12CC=CCCCC1(CCCC=CCCCOC(=O)N3CC[C@@](C(=O)N[C@@H](Cc4ccsc4)C(=O)N[C@@H](Cc4csc5ccccc45)C(=O)N[C@@H](CCC(N)=O)C(N)=O)(C3)NC(=O)[C@H](CC(C)C)NC(=O)[C@H](Cc3ccccc3)NC(=O)[C@H](C)NC(=O)[C@H](C)NC(=O)[C@H](Cc3c[nH]cn3)NC(=O)[C@H](CC(=O)O)NC1=O)NC(=O)[C@H](CC(C)(C)C)NC(=O)[C@H](CC(=O)O)NC2=O` (stereo partly drawn) [I-1795, Ac-PL3-Asp-Npg-B5-Asp-His-Ala-Ala-Phe-Leu-PyrS2-3Thi-BztA-Gln-NH2]: the IC50 turned out to be 28 nM.
The same measure for `CC(=O)N1CCC[C@]12CC=CCCCC1(CCCC=CCCCOC(=O)N3CC[C@@](C(=O)N[C@@H](Cc4ccsc4)C(=O)N[C@@H](Cc4csc5ccccc45)C(=O)N[C@@H](CCC(=O)N4CCC(N5CCCCC5)CC4)C(N)=O)(C3)NC(=O)[C@H](CC(C)C)NC(=O)[C@H](Cc3ccccc3)NC(=O)[C@H](C)NC(=O)[C@H](C)NC(=O)[C@H](CN(CC(=O)O)CC(F)(F)F)NC(=O)[C@H](CC(=O)O)NC1=O)NC(=O)[C@H](CC(C)(C)C)NC(=O)[C@H](CC(=O)O)NC2=O` (stereo partly drawn) [I-1798, Ac-PL3-Asp-Npg-B5-Asp-TfeGA-Ala-Ala-Phe-Leu-PyrS2-3Thi-BztA-[4Pippip]GlnR-NH2]: 12 nM; for `CC(=O)N1CCC[C@]12CCCCCC[C@@](C)(C(=O)N[C@@H](CC(=O)O)C(=O)N[C@@H](CC(=O)O)C(=O)N[C@@H](C)C(=O)N[C@@H](C)C(=O)N[C@@H](Cc1ccccc1)C(=O)N[C@@H](CC(C)C)C(=O)NC(C)(C)C(=O)N[C@@H](Cc1ccsc1)C(=O)N[C@@H](Cc1csc3ccccc13)C(=O)N[C@@H](CCC(N)=O)C(N)=O)NC(=O)[C@H](CC(C)(C)C)NC(=O)[C@H](CC(=O)O)NC2=O` [I-1809, Ac-PL3-Asp-Npg-S5-Asp-Asp-Ala-Ala-Phe-Leu-Aib-3Thi-BztA-Gln-NH2]: 1950 nM.
As for `CC(=O)N1CCC[C@H]1C(=O)N[C@@H](CC(=O)O)C(=O)N[C@@H](CC(C)(C)C)C(=O)N[C@]1(C)CCCCCCCCOC(=O)N2CC[C@@](C(=O)N[C@@H](Cc3ccsc3)C(=O)N[C@@H](Cc3csc4ccccc34)C(=O)N[C@@H](CCC(N)=O)C(N)=O)(C2)NC(=O)[C@H](CC(C)C)NC(=O)[C@H](Cc2ccccc2)NC(=O)[C@H](C)NC(=O)[C@H](C)NC(=O)[C@H](CC(=O)O)NC(=O)[C@H](CC(=O)O)NC1=O` [I-1810, Ac-Pro-Asp-Npg-R5-Asp-Asp-Ala-Ala-Phe-Leu-PyrS2-3Thi-BztA-Gln-NH2], the IC50 stood at 416 nM.
Then `CC(=O)N1CCC[C@]12CC=CCCCC1(CCCC=CCCCOC(=O)N3CC[C@@](C(=O)N[C@@H](Cc4ccccc4)C(=O)N[C@@H](Cc4c[nH]c5ccccc45)C(=O)N[C@@H](CCC(N)=O)C(N)=O)(C3)NC(=O)[C@H](CC(C)C)NC(=O)[C@H](Cc3ccccc3)NC(=O)[C@H](C)NC(=O)[C@H](C)NC(=O)[C@H](CC(=O)O)NC(=O)[C@H](CC(=O)O)NC1=O)NC(=O)[C@H](CC(C)C)NC(=O)[C@H](CC(=O)O)NC2=O` (stereo partly drawn) [I-1811, Ac-PL3-Asp-Leu-B5-Asp-Asp-Ala-Ala-Phe-Leu-PyrS2-Phe-Trp-Gln-NH2], with 156 nM.
The same measure for `CC(=O)N1CCC[C@]12CC=CCCCC1(CCCC=CCCOC(=O)N3CC[C@@](C(=O)N[C@@H](Cc4ccsc4)C(=O)N[C@@H](Cc4csc5ccccc45)C(=O)N[C@@H](CCC(N)=O)C(N)=O)(C3)NC(=O)[C@H](CC(N)=O)NC(=O)[C@H](Cc3ccccc3)NC(=O)[C@H](C)NC(=O)[C@H](C)NC(=O)[C@H](CC(=O)O)NC(=O)[C@H](CC(=O)O)NC1=O)NC(=O)[C@H](CC(C)(C)C)NC(=O)[C@H](CC(=O)O)NC2=O` (stereo partly drawn) [I-1812, Ac-PL3-Asp-Npg-B5-Asp-Asp-Ala-Ala-Phe-Asn-PyrS1-3Thi-BztA-Gln-NH2]: 181 nM.
Then `CC(=O)N1CCC[C@]12CC=CCCCC1(CCCC=CCCOC(=O)N3CC[C@@](C(=O)N[C@@H](Cc4ccsc4)C(=O)N[C@@H](Cc4csc5ccccc45)C(=O)N[C@@H](CCC(N)=O)C(N)=O)(C3)NC(=O)[C@H](CC(C)C)NC(=O)[C@H](Cc3ccccc3)NC(=O)[C@H](C)NC(=O)[C@H](C)NC(=O)[C@H](CC(=O)O)NC(=O)[C@H](CC(=O)O)NC1=O)NC(=O)[C@H](CC(C)(C)C)NC(=O)[C@H](CC(=O)O)NC2=O` (stereo partly drawn) [I-1814, Ac-PL3-Asp-Npg-B5-Asp-Asp-Ala-Ala-Phe-Leu-PyrS1-3Thi-BztA-Gln-NH2], with 189 nM; and `CC(=O)N1CCC[C@]12CC=CCCCC1(CCCC=CCOC(=O)N3CC[C@@](C(=O)N[C@@H](Cc4ccsc4)C(=O)N[C@@H](Cc4csc5ccccc45)C(=O)N[C@@H](CCC(N)=O)C(N)=O)(C3)NC(=O)[C@H](CC(N)=O)NC(=O)[C@H](Cc3ccccc3)NC(=O)[C@H](C)NC(=O)[C@H](C)NC(=O)[C@H](CC(=O)O)NC(=O)[C@H](CC(=O)O)NC1=O)NC(=O)[C@H](CC(C)(C)C)NC(=O)[C@H](CC(=O)O)NC2=O` (stereo partly drawn) [I-1816, Ac-PL3-Asp-Npg-B5-Asp-Asp-Ala-Ala-Phe-Asn-PyrS-3Thi-BztA-Gln-NH2], with 235 nM.

As a reminder, the IC50 is the point on the concentration scale where inhibition reaches its midpoint.
